Measurements from patent publication US11020399B2, “Intermediates useful in the synthesis of compounds as modulators of protein kinases” (Rhizen Pharmaceuticals SA, priority 2011, dated 2021).

Key:
[1] = biological target: PI3kα (Homo sapiens, UniProt P42336); experiment: Fluorescent (HTRF) determination of PI3 kinase enzyme activity, PI3Kα; format: biochemical; conditions: 1 uM
Summary of the method: (§1)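 Human PI3K isoforms were preincubated with compound for 10 min at room temperature in 10 mM MgCl2, 5 mM DTT, 1.38 μM PIP2, then reacted 30 min after adding 400 μM ATP stock. PIP3 was read by HTRF (665/620 nm). Percent inhibition used blank and enzyme controls; single-point testing was at 1 uM for α/β and 0.3 or 0.1 uM for γ/δ.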

[2] = biological target: PI3kβ (Homo sapiens, UniProt P42338); experiment: Fluorescent (HTRF) determination of PI3 kinase enzyme activity, PI3Kβ; format: biochemical; conditions: 1 uM
PI3kβ, sequence (P42338 whole entry): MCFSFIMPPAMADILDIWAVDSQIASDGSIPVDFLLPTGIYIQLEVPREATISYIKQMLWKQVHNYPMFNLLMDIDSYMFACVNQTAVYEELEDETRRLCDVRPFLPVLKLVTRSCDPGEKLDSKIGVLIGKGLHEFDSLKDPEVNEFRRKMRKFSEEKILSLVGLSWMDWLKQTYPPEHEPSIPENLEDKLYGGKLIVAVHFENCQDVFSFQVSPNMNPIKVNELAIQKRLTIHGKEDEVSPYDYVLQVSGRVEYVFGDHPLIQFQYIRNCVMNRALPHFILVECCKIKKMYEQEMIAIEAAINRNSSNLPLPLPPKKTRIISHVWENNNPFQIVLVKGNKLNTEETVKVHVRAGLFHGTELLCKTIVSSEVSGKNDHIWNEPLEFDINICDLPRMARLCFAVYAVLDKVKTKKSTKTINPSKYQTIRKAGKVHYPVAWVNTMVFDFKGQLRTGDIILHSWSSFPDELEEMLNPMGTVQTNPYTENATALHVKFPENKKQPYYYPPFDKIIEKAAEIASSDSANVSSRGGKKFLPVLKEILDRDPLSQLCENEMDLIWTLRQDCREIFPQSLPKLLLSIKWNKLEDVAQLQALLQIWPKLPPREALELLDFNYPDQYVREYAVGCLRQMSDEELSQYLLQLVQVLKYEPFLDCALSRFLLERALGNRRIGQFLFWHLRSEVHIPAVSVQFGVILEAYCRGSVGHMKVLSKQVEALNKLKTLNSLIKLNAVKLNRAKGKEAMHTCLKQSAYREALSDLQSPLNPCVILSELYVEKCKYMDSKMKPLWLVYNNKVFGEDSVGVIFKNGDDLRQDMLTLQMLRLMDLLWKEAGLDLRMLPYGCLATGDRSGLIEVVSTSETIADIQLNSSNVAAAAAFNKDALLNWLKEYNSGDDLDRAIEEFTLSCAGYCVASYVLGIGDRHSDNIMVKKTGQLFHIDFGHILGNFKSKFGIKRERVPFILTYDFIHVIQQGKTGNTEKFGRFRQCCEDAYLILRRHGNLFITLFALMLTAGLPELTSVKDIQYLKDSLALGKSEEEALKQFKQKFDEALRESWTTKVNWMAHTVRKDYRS
PI3kβ, sequence (P27986 whole entry partner): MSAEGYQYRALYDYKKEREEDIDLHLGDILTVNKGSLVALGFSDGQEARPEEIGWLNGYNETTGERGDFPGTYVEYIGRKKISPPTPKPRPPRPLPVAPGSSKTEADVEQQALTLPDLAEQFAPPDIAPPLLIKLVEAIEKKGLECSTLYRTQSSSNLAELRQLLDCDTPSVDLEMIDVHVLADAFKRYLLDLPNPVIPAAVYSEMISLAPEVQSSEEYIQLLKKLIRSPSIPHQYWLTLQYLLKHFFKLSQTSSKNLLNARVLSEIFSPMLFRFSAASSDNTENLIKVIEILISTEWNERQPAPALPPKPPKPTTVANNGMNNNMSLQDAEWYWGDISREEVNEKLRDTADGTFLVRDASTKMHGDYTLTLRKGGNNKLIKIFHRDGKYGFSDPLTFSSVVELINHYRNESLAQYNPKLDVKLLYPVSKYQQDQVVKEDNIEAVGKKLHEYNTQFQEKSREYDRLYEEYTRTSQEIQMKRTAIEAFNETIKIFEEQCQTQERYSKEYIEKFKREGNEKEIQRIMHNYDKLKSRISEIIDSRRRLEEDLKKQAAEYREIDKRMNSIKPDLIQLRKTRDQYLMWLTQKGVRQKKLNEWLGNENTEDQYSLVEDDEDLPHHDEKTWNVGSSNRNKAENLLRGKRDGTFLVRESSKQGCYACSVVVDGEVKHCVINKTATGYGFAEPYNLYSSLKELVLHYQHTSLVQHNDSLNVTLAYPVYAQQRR
Summary of the method: as §1

[3] = biological target: PI3kγ (Homo sapiens, UniProt P48736); experiment: Fluorescent (HTRF) determination of PI3 kinase enzyme activity, PI3Kγ; format: biochemical; conditions: for inhibition at 0.3 µM: 300 nM (Examples 1-59)
PI3kγ, sequence (P48736 whole entry): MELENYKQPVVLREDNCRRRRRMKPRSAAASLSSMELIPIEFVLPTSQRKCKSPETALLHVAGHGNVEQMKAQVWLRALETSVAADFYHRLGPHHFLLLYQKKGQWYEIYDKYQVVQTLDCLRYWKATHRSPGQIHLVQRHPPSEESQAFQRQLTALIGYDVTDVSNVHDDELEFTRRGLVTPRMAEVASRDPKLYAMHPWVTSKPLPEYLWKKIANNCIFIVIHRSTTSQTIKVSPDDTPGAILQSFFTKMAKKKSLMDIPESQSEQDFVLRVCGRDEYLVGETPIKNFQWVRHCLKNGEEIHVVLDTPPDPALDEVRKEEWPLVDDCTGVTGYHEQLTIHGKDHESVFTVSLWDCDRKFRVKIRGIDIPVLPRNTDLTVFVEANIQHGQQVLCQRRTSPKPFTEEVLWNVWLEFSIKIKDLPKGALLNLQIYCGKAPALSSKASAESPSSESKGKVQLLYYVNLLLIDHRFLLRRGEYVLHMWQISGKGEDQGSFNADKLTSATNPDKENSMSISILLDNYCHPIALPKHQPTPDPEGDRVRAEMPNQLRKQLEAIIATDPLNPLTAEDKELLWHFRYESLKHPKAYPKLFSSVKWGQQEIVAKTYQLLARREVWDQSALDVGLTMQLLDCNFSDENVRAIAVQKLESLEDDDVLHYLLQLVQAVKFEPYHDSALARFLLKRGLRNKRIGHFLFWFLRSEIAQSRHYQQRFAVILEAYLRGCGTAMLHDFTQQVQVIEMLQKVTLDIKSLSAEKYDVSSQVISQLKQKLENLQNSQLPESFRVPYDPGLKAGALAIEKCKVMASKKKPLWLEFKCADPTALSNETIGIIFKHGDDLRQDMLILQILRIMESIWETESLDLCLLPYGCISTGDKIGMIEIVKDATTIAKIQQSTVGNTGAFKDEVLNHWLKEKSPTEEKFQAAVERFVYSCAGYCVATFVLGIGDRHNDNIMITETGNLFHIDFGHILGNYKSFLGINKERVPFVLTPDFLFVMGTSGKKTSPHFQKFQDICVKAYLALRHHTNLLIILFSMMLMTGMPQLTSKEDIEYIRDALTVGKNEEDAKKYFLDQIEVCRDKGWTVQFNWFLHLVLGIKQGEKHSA
Summary of the method: as §1

[4] = biological target: PI3kδ (Homo sapiens, UniProt O00329); experiment: Fluorescent (HTRF) determination of PI3 kinase enzyme activity, PI3Kδ; format: biochemical; conditions: for inhibition at 0.3 µM: 300 nM (Examples 1-59)
PI3kδ, sequence (O00329 whole entry): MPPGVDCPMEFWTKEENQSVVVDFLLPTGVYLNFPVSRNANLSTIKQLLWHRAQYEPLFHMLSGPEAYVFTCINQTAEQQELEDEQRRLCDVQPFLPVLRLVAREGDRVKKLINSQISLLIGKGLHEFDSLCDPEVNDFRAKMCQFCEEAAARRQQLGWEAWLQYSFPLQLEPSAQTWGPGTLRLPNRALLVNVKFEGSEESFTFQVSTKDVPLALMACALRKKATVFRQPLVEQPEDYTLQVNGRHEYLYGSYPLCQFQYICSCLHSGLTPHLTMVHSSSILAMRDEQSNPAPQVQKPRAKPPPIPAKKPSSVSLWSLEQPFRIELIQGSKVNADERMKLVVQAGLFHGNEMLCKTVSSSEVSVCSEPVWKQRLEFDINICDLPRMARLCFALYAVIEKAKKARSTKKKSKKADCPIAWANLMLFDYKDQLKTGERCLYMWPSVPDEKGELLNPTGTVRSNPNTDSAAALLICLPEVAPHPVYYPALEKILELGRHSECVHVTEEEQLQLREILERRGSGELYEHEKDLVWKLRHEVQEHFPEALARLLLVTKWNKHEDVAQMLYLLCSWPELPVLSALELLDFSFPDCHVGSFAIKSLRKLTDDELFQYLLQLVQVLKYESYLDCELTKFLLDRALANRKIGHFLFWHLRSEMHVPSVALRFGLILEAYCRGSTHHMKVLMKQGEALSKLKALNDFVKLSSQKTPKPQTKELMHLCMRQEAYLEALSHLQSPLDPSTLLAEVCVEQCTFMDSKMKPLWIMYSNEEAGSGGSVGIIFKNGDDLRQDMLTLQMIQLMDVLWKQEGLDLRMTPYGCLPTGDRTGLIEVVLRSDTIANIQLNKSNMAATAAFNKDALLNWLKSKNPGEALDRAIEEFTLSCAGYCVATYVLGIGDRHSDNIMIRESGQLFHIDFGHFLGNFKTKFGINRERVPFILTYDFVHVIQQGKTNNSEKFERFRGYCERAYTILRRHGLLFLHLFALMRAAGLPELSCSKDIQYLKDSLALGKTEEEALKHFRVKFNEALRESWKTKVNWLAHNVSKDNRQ
PI3kδ, sequence (P27986 whole entry partner): as the sequence (P27986 whole entry partner) above
Summary of the method: as §1

[5] = 100 nM (Examples 60-137), 0.1 µM

PI3kα, sequence (P42336 whole entry, canonical isoform): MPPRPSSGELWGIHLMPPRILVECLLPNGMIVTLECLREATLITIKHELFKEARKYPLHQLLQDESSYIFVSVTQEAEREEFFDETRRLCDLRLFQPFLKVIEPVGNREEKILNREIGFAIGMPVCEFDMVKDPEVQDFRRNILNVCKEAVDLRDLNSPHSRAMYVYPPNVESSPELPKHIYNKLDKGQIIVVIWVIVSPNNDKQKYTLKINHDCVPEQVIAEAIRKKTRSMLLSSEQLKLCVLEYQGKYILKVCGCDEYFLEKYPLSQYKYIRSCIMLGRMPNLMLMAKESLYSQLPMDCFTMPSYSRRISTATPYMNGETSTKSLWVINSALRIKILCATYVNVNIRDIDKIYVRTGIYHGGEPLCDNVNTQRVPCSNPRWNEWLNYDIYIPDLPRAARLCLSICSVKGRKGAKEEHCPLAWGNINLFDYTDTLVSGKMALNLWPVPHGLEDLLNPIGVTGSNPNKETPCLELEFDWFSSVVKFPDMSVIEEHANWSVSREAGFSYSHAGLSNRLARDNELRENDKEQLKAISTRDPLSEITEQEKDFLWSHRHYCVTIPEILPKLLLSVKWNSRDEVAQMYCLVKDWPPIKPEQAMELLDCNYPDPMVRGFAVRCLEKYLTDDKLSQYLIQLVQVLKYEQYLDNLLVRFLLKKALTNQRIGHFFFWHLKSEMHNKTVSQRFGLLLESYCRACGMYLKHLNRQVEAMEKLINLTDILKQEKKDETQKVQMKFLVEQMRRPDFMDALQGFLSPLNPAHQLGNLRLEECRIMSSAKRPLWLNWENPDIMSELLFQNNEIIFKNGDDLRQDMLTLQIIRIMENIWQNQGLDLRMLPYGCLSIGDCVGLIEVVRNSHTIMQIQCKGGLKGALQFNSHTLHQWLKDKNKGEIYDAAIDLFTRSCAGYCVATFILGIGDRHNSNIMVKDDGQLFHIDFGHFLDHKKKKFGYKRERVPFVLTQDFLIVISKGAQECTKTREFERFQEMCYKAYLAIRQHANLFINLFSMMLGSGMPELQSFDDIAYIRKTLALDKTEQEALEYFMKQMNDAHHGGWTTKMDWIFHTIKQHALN
PI3kα, sequence (P27986 whole entry partner, canonical isoform): as the sequence (P27986 whole entry partner) above

SMILES	inhibition at 1 µM [1] [%]	inhibition at 1 µM [2] [%]	inhibition at 0.3 µM [3] [%]	inhibition at 0.3 µM [4] [%]	melting point [°C]	inhibition at 0.1 µM ([3]; 100 nM (Examples 60-137)) [%]	inhibition at 0.1 µM ([4]; 100 nM (Examples 60-137)) [%]	IC50 [4] [nM]	% inhibition (PI3kγ) 100 nM [3, 5]	% inhibition (PI3kδ) 100 nM [4, 5]
CC(C)NS(=O)(=O)c1ccc(-c2nn(C(C)c3oc4cccc(F)c4c(=O)c3-c3cccc(F)c3)c3ncnc(N)c23)cc1 (stereo not shown) [Example 56, 4-(4-amino-1-(1-(5-fluoro-3-(3-fluorophenyl)-4-oxo-4H-chromen-2-yl)ethyl)-1H-pyrazolo[3,4-d]pyrimidin-3-yl)-N-isopropylbenzenesulfonamide]	0 to 25	50 to 75	50 to 75	0 to 25	211 to 214	–	–	–	–	–
CC(C)Oc1ncc(-c2nn(C(C)c3oc4cccc(F)c4c(=O)c3-c3cccc(F)c3)c3ncnc(N)c23)cn1 (stereo not shown) [Example 58, 2-(1-(4-amino-3-(2-isopropoxypyrimidin-5-yl)-1H-pyrazolo[3,4-d]pyrimidin-1-yl)ethyl)-5-fluoro-3-(3-fluorophenyl)-4H-chromen-4-one]	0 to 25	50 to 75	25 to 50	50 to 75	230 to 232	–	–	–	–	–
CC(c1oc2cccc(F)c2c(=O)c1-c1cccc(F)c1)n1nc(-c2ccc(S(N)(=O)=O)cc2)c2c(N)ncnc21 (stereo not shown) [Example 60, 4-(4-amino-1-(1-(5-fluoro-3-(3-fluorophenyl)-4-oxo-4H-chromen-2-yl)ethyl)-1H-pyrazolo[3,4-d]pyrimidin-3-yl)benzenesulfonamide]	0 to 25	25 to 50	–	–	232 to 235	25 to 50	25 to 50	–	–	–
COC(=O)c1cc(-c2nn(C(C)c3oc4cccc(F)c4c(=O)c3-c3cccc(F)c3)c3ncnc(N)c23)cs1 (stereo not shown) [Example 61, methyl 4-(4-amino-1-(1-(5-fluoro-3-(3-fluorophenyl)-4-oxo-4H-chromen-2-yl)ethyl)-1H-pyrazolo[3,4-d]pyrimidin-3-yl)thiophene-2-carboxylate]	25 to 50	25 to 50	–	–	227 to 230	50 to 75	25 to 50	–	–	–
Cc1ccc(-c2nn(C(C)c3oc4cccc(F)c4c(=O)c3-c3cccc(F)c3)c3ncnc(N)c23)s1 (stereo not shown) [Example 62, 2-(1-(4-amino-3-(5-methylthiophen-2-yl)-1H-pyrazolo[3,4-d]pyrimidin-1-yl)ethyl)-5-fluoro-3-(3-fluorophenyl)-4H-chromen-4-one]	0 to 25	50 to 75	–	–	223 to 226	25 to 50	50 to 75	–	–	–
CC(c1oc2cccc(F)c2c(=O)c1-c1cccc(F)c1)n1nc(-c2cnc3[nH]ccc3c2)c2c(N)ncnc21 (stereo not shown) [Example 63, 2-(1-(4-amino-3-(1H-pyrrolo[2,3-b]pyridin-5-yl)-1H-pyrazolo[3,4-d]pyrimidin-1-yl)ethyl)-5-fluoro-3-(3-fluorophenyl)-4H-chromen-4-one]	25 to 50	0 to 25	–	–	303 to 306	25 to 50	25 to 50	–	–	–
CC(c1oc2cccc(F)c2c(=O)c1-c1cccc(F)c1)n1nc(C#CCO)c2c(N)ncnc21 (stereo not shown) [Example 66, 2-(1-(4-amino-3-(3-hydroxyprop-1-ynyl)-1H-pyrazolo[3,4-d]pyrimidin-1-yl)ethyl)-5-fluoro-3-(3-fluorophenyl)-4H-chromen-4-one]	25 to 50	25 to 50	–	–	220 to 222	25 to 50	25 to 50	–	–	–
CC(c1oc2cccc(F)c2c(=O)c1-c1cccc(F)c1)n1nc(-c2ccc(CNC(=O)OC(C)(C)C)o2)c2c(N)ncnc21 (stereo not shown) [Example 74, tert-butyl (5-(4-amino-1-(1-(5-fluoro-3-(3-fluorophenyl)-4-oxo-4H-chromen-2-yl)ethyl)-1H-pyrazolo[3,4-d]pyrimidin-3-yl)furan-2-yl)methylcarbamate]	0 to 25	25 to 50	–	–	163 to 166	25 to 50	50 to 75	–	–	–
CC(c1oc2cccc(F)c2c(=O)c1-c1cccc(F)c1)n1nc(-c2ccc(CN3CCOCC3)s2)c2c(N)ncnc21 (stereo not shown) [Example 76, 2-(1-(4-amino-3-(5-(morpholinomethyl)thiophen-2-yl)-1H-pyrazolo[3,4-d]pyrimidin-1-yl)ethyl)-5-fluoro-3-(3-fluorophenyl)-4H-chromen-4-one]	0 to 25	25 to 50	–	–	193 to 196	25 to 50	25 to 50	–	–	–
CC(c1oc2cccc(F)c2c(=O)c1-c1cccc(F)c1)n1nc(-c2ccc(-c3nnc(N)s3)cc2)c2c(N)ncnc21 (stereo not shown) [Example 77, 2-(1-(4-amino-3-(4-(5-amino-1,3,4-thiadiazol-2-yl)phenyl)-1H-pyrazolo[3,4-d]pyrimidin-1-yl)ethyl)-5-fluoro-3-(3-fluorophenyl)-4H-chromen-4-one]	25 to 50	50 to 75	–	–	202 to 205	25 to 50	50 to 75	50 to 100	–	–
Cc1nn(C)c2cc(-c3nn(C(C)c4oc5cccc(F)c5c(=O)c4-c4cccc(F)c4)c4ncnc(N)c34)ccc12 (stereo not shown) [Example 79, 2-(1-(4-amino-3-(1,3-dimethyl-1H-indazol-6-yl)-1H-pyrazolo[3,4-d]pyrimidin-1-yl)ethyl)-5-fluoro-3-(3-fluorophenyl)-4H-chromen-4-one]	25 to 50	25 to 50	–	–	220 to 224	25 to 50	0 to 25	–	–	–
Cc1c2ccc(-c3nn(C(C)c4oc5cccc(F)c5c(=O)c4-c4cccc(F)c4)c4ncnc(N)c34)cc2nn1C (stereo not shown) [Example 80, 2-(1-(4-amino-3-(2,3-dimethyl-2H-indazol-6-yl)-1H-pyrazolo[3,4-d]pyrimidin-1-yl)ethyl)-5-fluoro-3-(3-fluorophenyl)-4H-chromen-4-one]	50 to 75	25 to 50	–	–	232 to 235	25 to 50	50 to 75	–	–	–

More lines, now with the values ahead:

inhibition at 1 µM [1] [%]	inhibition at 1 µM [2] [%]	inhibition at 0.3 µM [3] [%]	inhibition at 0.3 µM [4] [%]	melting point [°C]	inhibition at 0.1 µM ([3]; 100 nM (Examples 60-137)) [%]	inhibition at 0.1 µM ([4]; 100 nM (Examples 60-137)) [%]	IC50 [4] [nM]	% inhibition (PI3kγ) 100 nM [3, 5]	% inhibition (PI3kδ) 100 nM [4, 5]	SMILES
25 to 50	25 to 50	–	–	249 to 252	25 to 50	50 to 75	–	–	–	CC(C)C(=O)Nc1ccc(-c2nn(C(C)c3oc4cccc(F)c4c(=O)c3-c3cccc(F)c3)c3ncnc(N)c23)cc1F (stereo not shown) [Example 81, N-(4-(4-amino-1-(1-(5-fluoro-3-(3-fluorophenyl)-4-oxo-4H-chromen-2-yl)ethyl)-1H-pyrazolo[3,4-d]pyrimidin-3-yl)-2-fluorophenyl)isobutyramide]
25 to 50	25 to 50	–	–	220 to 223	25 to 50	25 to 50	–	–	–	CC(=O)Nc1ccc(-c2nn(C(C)c3oc4cccc(F)c4c(=O)c3-c3cccc(F)c3)c3ncnc(N)c23)cc1F (stereo not shown) [Example 82, N-(4-(4-amino-1-(1-(5-fluoro-3-(3-fluorophenyl)-4-oxo-4H-chromen-2-yl)ethyl)-1H-pyrazolo[3,4-d]pyrimidin-3-yl)-2-fluorophenyl)acetamide]
0 to 25	25 to 50	–	–	116 to 119	–	–	–	C (C=>25 to 50%)	C (C=>25 to 50%)	CC(C)Oc1ccc(-c2nn(C(C)c3oc4cccc(F)c4c(=O)c3-c3cccc(F)c3)c3ncnc(N4CCOCC4)c23)cc1F (stereo not shown) [Example 85, 5-fluoro-2-(1-(3-(3-fluoro-4-isopropoxyphenyl)-4-morpholino-1H-pyrazolo[3,4-d]pyrimidin-1-yl)ethyl)-3-(3-fluorophenyl)-4H-chromen-4-one]
25 to 50	50 to 75	–	–	168 to 170	0 to 25	50 to 75	100 to 300	–	–	CC(C)C(=O)Nc1ccc(-c2nn(C(C)c3oc4cccc(F)c4c(=O)c3-c3cccc(F)c3)c3ncnc(N4CCOCC4)c23)cc1F (stereo not shown) [Example 87, N-(2-fluoro-4-(1-(1-(5-fluoro-3-(3-fluorophenyl)-4-oxo-4H-chromen-2-yl)ethyl)-4-morpholino-1H-pyrazolo[3,4-d]pyrimidin-3-yl)phenyl)isobutyramide]
50 to 75	0 to 25	–	–	183 to 186	50 to 75	50 to 75	–	–	–	Cc1n[nH]c2cc(-c3nn(C(C)c4oc5cccc(F)c5c(=O)c4-c4cccc(F)c4)c4ncnc(N5CCOCC5)c34)ccc12 (stereo not shown) [Example 112, 5-fluoro-3-(3-fluorophenyl)-2-(1-(3-(3-methyl-1H-indazol-6-yl)-4-morpholino-1H-pyrazolo[3,4-d]pyrimidin-1-yl)ethyl)-4H-chromen-4-one]
25 to 50	25 to 50	–	–	211 to 214	50 to 75	0 to 25	–	–	–	CC(C)Oc1ccc(-c2nn(C(C)c3oc4cccc(N5CCOCC5)c4c(=O)c3-c3ccccc3)c3ncnc(N)c23)cc1F (stereo not shown) [Example 121, 2-(1-(4-amino-3-(3-fluoro-4-isopropoxyphenyl)-1H-pyrazolo[3,4-d]pyrimidin-1-yl)ethyl)-5-morpholino-3-phenyl-4H-chromen-4-one]
0 to 25	25 to 50	–	–	293 to 296	0 to 25	50 to 75	–	–	–	CC(c1oc2cccc(F)c2c(=O)c1-c1cccc(F)c1)n1nc(-c2ccc3c(c2)CNC3=O)c2c(N)ncnc21 (stereo not shown) [Example 123, 5-(4-amino-1-(1-(5-fluoro-3-(3-fluorophenyl)-4-oxo-4H-chromen-2-yl)ethyl)-1H-pyrazolo[3,4-d]pyrimidin-3-yl)isoindolin-1-one]
